Reference: ChEMBL document CHEMBL1125729, “A cardioselective, hydrophilic N,N,N-trimethylethanaminium alpha-tocopherol analogue that reduces myocardial infarct size” (J Med Chem, 1991)

Columns and labels:
[1] = Partition coefficient (logD) (octanol/phosphate buffer); format: physicochemical
Rattus norvegicus [2] = experiment: Total radioactivity 1 hour after intravenous administration of 1 mg/kg in rat blood.; format: functional
Rattus norvegicus [3] = experiment: Total radioactivity 1 hour after intravenous administration of 1 mg/kg in rat heart.; format: functional
Rattus norvegicus [4] = experiment: Total radioactivity 1 hour after intravenous administration of 1 mg/kg in rat skeletal muscle.; format: functional, Muscle tissue
[5] = Ratio of total radioactivity of blood to blood in rats.
[6] = Ratio of total radioactivity of heart tissue to blood in rats.; format: tissue-based
[7] = Ratio of total radioactivity of skeletal muscle to blood in rats.
Rattus norvegicus [8] = organism: Rattus norvegicus; experiment: Compound was evaluated for prevention of spontaneous lipid peroxidation in rat brain homogenate.; format: functional

logD [1] | Ratio [5] | Ratio [7] | IC50 (Rattus norvegicus [8]) | Compound | Total radioactivity (Rattus norvegicus [2]) | Total radioactivity (Rattus norvegicus [3]) | Total radioactivity (Rattus norvegicus [4]) | Ratio [6]
-0.18 | 1 | 1.7 |  | CC(=O)Oc1c(C)c(C)c2c(c1C)CCC(C)(CC[N+](C)(C)C)O2 (stereo unspecified) | 0.11 | 2.28 | 0.19 | 20.7
-0.6 |  |  | 1.7 µM | Cc1c(C)c2c(c(C)c1O)CCC(C)(CC[N+](C)(C)C)O2 (stereo unspecified) |  |  |  | 
1.56 | 1 | 1.5 |  | CC(=O)Oc1c(C)c(C)c2c(c1C)CCC(C)(CCN(C)C)O2 (stereo unspecified) | 0.18 | 0.28 | 0.27 | 1.6
-1.02 |  |  | 12 µM | Cc1c(C)c2c(c(C)c1O)CCC(C)(C(=O)O)O2 (stereo unspecified) [TROLOX] |  |  |  | 
1.15 |  |  | 0.5 µM | Cc1c(C)c2c(c(C)c1O)CCC(C)(CCN(C)C)O2 (stereo unspecified) |  |  |  | 
 |  |  | 12 µM | Cc1c(C)c2c(c(C)c1O)CC[C@@](C)(CCC[C@H](C)CCC[C@H](C)CCCC(C)C)O2 (racemic) [ALPHA-TOCOPHEROL] |  |  |  | 
